Tests used:
[1] = tested on: TNF-α; assay: LPS-stimulated J774 macrophages: TNF-α production; type: cell-based
From the text: (§1) In in vitro studies, J774 macrophages were exposed to bacterial lipopolysaccharide (LPS), to induce pro-inflammatory mediator production and cytotoxicity. […] This assay (the LPS-stimulated macrophage) represents an in vitro model of an inflammatory situation. Agents that block inflammatory mediator production in this assay are expected to have anti-inflammatory or immunosuppressive effects in inflammatory or immune diseases.
(§2) The half-maximal inhibitory effect (in μM) of various PJ compounds was assessed under a variety of conditions in immunostimulated J774 macrophages and in peroxynitrite-stimulated thymocytes. Macrophages or thymocytes were first treated with a chosen PJ compound for 30 min at a concentration ranging from 0.1 to 30 μM. The cells were then immunostimulated with LPS (10 μg/ml) or treated with peroxynitrite (30 μM). MIP production in the macrophages was measured at 3 h, TNF and nitric oxide were measured at 24 h, cell viability in the macrophages were measured at 24 h. PARS activation and cell death in thymocytes were measured at 6 h. Measurements of mediator production, PARS activation and cell death were essentially as described in Németh, et al., Eur J Pharmacol 339:215-221, 1997 and Virág and Szabó, Br J Pharmacol, 126: 769-777, 1999. Results in Table 2 are shown as EC50 values (half maximal inhibition of mediator production or restoration of cell viability; in μM): [mean±SEM of n=3-6 determinations].

[2] = tested on: MIP-1α; assay: LPS-stimulated J774 macrophages: MIP-1α production; type: cell-based
From the text: as §1, §2

[3] = tested on: MIP-2; assay: LPS-stimulated J774 macrophages: MIP-2 production; type: cell-based
From the text: as §1, §2

[4] = tested on: J774 macrophages; assay: LPS-stimulated J774 macrophages: cell viability; type: cell-based
From the text: as §1, §2

[5] = tested on: thymocytes; assay: Peroxynitrite-stimulated thymocytes: cell viability; type: cell-based
Experimental: as §2

[6] = tested on: thoracic aortic rings from wild-type mice; assay: High glucose induced endothelial dysfunction in isolated thoracic aortic rings; design: species or system mouse; conditions: 30 mM glucose 16 hours; co-incubation with PJ34 1 μM
Experimental: Breeding pairs of mice for the PARS colony were a gift from Dr. Z. Q. Wang, International Agency for Research on Cancer Lyon, France. Thoracic aortae from PARS^−/− and PARS^+/+ mice (Wang et al., Genes Dev.9: 509-520, 1995) were harvested, cleared of periadvential fat, and cut into 3 or 4 pieces. […] Four different media preparations were used: a) normal glucose, i.e. 5 mM: in F-12K Nutrient Mixture medium (Gibco BRL—Life Technologies); b) Osmotic control, i.e. 30 mM L-glucose in F-12K medium; c) High glucose i.e. 30 mM D-glucose in F-12K medium; […].
After incubation, aortic rings were mounted in organ baths filled with warmed and gas equilibrated Krebs' solution and endothelium dependent relaxant ability was evaluated as described above.

[7] = tested on: Lewis rats; assay: Heterotopic heart transplantation: coronary blood flow and myocardial performance; type: in vivo, rat; conditions: 3 mg/kg i.v.
[8] = tested on: rat; assay: Middle cerebral artery occlusion/reperfusion
Experimental: Occlusion lasted for 2 hours, followed by reperfusion for 24 hours. Infarct size was quantified with tetrazolium staining, and survival and neurological scores were monitored.

[9] = J774 macrophages exposed to LPS

Structure (SMILES): CN(C)CC(=O)Nc1ccc2[nH]c(=O)c3ccccc3c2c1 [PJ34, N-(6-oxo-5,6-dihydro-phenanthridin-2-yl)-N,N-dimethylacetamide]
- production of the pro-inflammatory cytokine TNF-α (in words) [1, 9]: inhibited
- EC50 ([1]; Mus musculus, J774, LPS 10 μg/ml, 30 min pretreatment 0.1 to 30 μM, measured at 24 h, mean±SEM n=3-6, read-out: Inhibition of TNF-α (J774)): 5.4 ± 0.6 µM
- production of the chemokine MIP-1α (in words) [2, 9]: inhibited
- EC50 ([2]; Mus musculus, J774, LPS 10 μg/ml, 30 min pretreatment 0.1 to 30 μM, measured at 3 h, mean±SEM n=3-6, read-out: Inhibition of MIP-1α (J774)): 10.2 ± 1.4 µM
- production of the chemokine MIP-2 (in words) [3, 9]: inhibited
- EC50 ([3]; Mus musculus, J774, LPS 10 μg/ml, 30 min pretreatment 0.1 to 30 μM, measured at 3 h, mean±SEM n=3-6, read-out: Inhibition of MIP-2 (J774)): 7.2 ± 0.88 µM
- viability of the cells suppressed by LPS exposure (in words) [4, 9]: restored the viability
- EC50 ([4]; Mus musculus, J774, LPS 10 μg/ml, 30 min pretreatment 0.1 to 30 μM, measured at 24 h, mean±SEM n=3-6, read-out: Enhancement of cell Viability (J774)): 12.5 ± 1.4 µM
- EC50 ([5]; Thymocyte, peroxynitrite 30 μM, 30 min pretreatment 0.1 to 30 μM, measured at 6 h, mean±SEM n=3-6, read-out: Enhancement of cell viability (thymocyte)): 0.2 ± 0.1 µM
- oxidant-induced suppression of the viability of the cells (in words) ([5]; isolated thymocytes exposed to peroxynitrite or hydrogen peroxide): prevented
- impairment in endothelium-dependent relaxation by high glucose [6]: prevented
- myocardial performance (in words) ([7]; data not shown): markedly enhanced
- Basal coronary bloodflow ([7]; 1 h after transplant, vehicle 2.8 ± 0.3): 4.1 ± 0.4 mL/min
- Acetylcholine stimulated coronary bloodflow ([7]; 1 h after transplant, vehicle 3.5 ± 0.3): 6.5 ± 0.5 mL/min
- Basal coronary bloodflow ([7]; 24 h after transplant, vehicle 3.9 ± 0.3): 4.2 ± 0.2 mL/min
- Acetylcholine stimulated coronary bloodflow ([7]; 24 h after transplant, vehicle 6.1 ± 0.4): 8.2 ± 0.8 mL/min
- reduction of the size of brain infarction ([8]; 10 mg/kg i.v. at 2 h after the start of reperfusion): 55±8%
- reduction of the size of brain infarction ([8]; 10 mg/kg i.v. at the time of reperfusion (5 min before start)): 74±6%
- mortality over 24 hours (in words) ([8]; 2 hours occlusion, 24 hours reperfusion, 10 mg/kg i.v., 73% mortality in control or vehicle): no animals died
- neurological deficit (scale of 1-4) ([8]; 24 h, vehicle survivors scored 4): no detectable deficit
